Measured values published in patent publication US20160303184A1, “VANCOMYCIN-SUGAR CONJUGATES AND USES THEREOF” (JAWAHARLAL NEHRU CENTRE FOR ADVANCED SCIENTIFIC RESEARCH …, priority 2013, published 2016).
Converted amounts (≈) assume the structure as drawn. Like-named read-outs stand apart in the source and are kept apart here.

Experiments:
Type in all cases: cell-based
[1] = tested on: Vancomycin intermediate resistant S. aureus; experiment: MIC, micro-dilution broth, VISA; conditions: read-out: MIC VISA
Description: (§1) All test compounds were assayed in a micro-dilution broth format. Stock solutions were made by serially diluting the compounds using autoclaved millipore water or broth media. The antibacterial activity of the compounds was determined against methicillin-sensitive S. aureus (MSSA), methicillin-resistant S. aureus (MRSA), vancomycin-intermediate-resistant S. aureus (VISA), vancomycin-sensitive E. faecium (VSE) and vancomycin-resistant E. faecium (VRE). Bacteria, to be tested, were grown for about 10 h in the suitable media, MSSA, MRSA and VISA were grown in yeast-dextrose broth (about 1 g of beef extract, about 2 g of yeast extract, about 5 g of peptone and about 5 g of NaCl in about 1000 mL of sterile distilled water (pH-7)). For solid media, about 5% agar was used along with above mentioned composition. VSE and VRE were cultured in brain heart infusion broth (Himedia). The bacterial samples were freeze dried and stored at −80° C. About 5 μL of these stocks were added to about 3 mL of the nutrient broth and the culture was grown for about 6 h at about 37° C. prior to the experiments. This 6 h grown culture gives about 10^9 cfu/mL and this was determined by spread plating method. The 6 h grown culture was diluted to give effective cell concentration of about 10^5 cfu/mL which was then used for determining MIC. Compounds were serially diluted, in sterile water (2 fold dilution is employed) in a way that the working concentration was about 10 μM for MSSA, MRSA, and VSE while for VRE and VISA it was about 100 μM. About 50 μL of these serial dilutions were added to the wells of 96 well plate followed by the addition of about 150 μL of bacterial solution. The plates were then incubated at about 37° C., 150 rpm in the incubator and O.D at 600 nm was recorded at an interval of about 10 h and 24 h using TECAN (Infinite series, M200 pro) Plate Reader. Each concentration had triplicate values and the whole experiment was done at least twice and the MIC value was determined by taking the average of triplicate. O. D. values for each concentration and plotting it against concentration. The data was then subjected to sigmoidal fitting. From the curve the MIC value was determined, as the point in the curve where the O. D. was similar to that of control having no bacteria.

[2] = tested on: Methicillin-sensitive S. aureus (MTCC 737); experiment: MIC, micro-dilution broth, MSSA; conditions: MTCC 737, read-out: MIC MSSA
Description: as §1

[3] = tested on: Methicillin-resistant S. aureus (ATCC 33591); experiment: MIC, micro-dilution broth, MRSA; conditions: ATCC 33591, read-out: MIC MRSA
Description: as §1

[4] = tested on: Vancomycin-resistant E. faecium (VanA, ATCC 51559); experiment: MIC, micro-dilution broth, VRE (VanA); conditions: E. faecium ATCC 51559, read-out: MIC VRE (VanA)
Description: as §1

[5] = tested on: Vancomycin-sensitive E. faecium (ATCC 19634); experiment: MIC, micro-dilution broth, VSE; conditions: read-out: MIC VSE
Description: as §1

[6] = tested on: Vancomycin-resistant E. faecalis (VanA, ATCC 51575); experiment: MIC, micro-dilution broth, VRE (VanB); conditions: Enterococcus faecalis; E. faecalis ATCC 51575; read-out: MIC VRE (VanB)
[7] = tested on: methicillin-resistant S. epidermidis clinical isolate; experiment: MIC, clinical isolate of methicillin-resistant S. epidermidis; conditions: Staphylococcus epidermidis, read-out: MIC S. epidermidis
[8] = tested on: methicillin-resistant S. aureus clinical isolate; experiment: MIC, clinical isolate of methicillin-resistant S. aureus; conditions: Staphylococcus aureus, read-out: MIC S. aureus
Description: as §1

[9] = tested on: methicillin-resistant S. haemolyticus clinical isolate; experiment: MIC, clinical isolate of methicillin-resistant S. haemolyticus; conditions: Staphylococcus haemolyticus; clinical isolate, methicillin-resistant; read-out: MIC S. haemolyticus
[10] = Enterococcus faecium, ATCC19634, ATCC 19634

| SMILES | MIC [1] | MIC [2] | MIC [3] | MIC [4] | MIC ([5]; ATCC 19634) | MIC ([1]; Staphylococcus aureus, VISA) | MIC ([2]; Staphylococcus aureus) | MIC ([3]; Staphylococcus aureus) | MIC ([4]; Enterococcus faecium) | MIC [5, 10] | MIC [6] | MIC [7] | MIC [8] | MIC [9] |
| --- | --- | --- | --- | --- | --- | --- | --- | --- | --- | --- | --- | --- | --- | --- |
| CN[C@H](CC(C)C)C(=O)N[C@H]1C(=O)N[C@@H](CC(N)=O)C(=O)N[C@H]2C(=O)N[C@H]3C(=O)N[C@H](C(=O)N[C@H](C(=O)NCCCNC(=O)[C@H](O)[C@@H](O)[C@H](O)[C@H](O)CO)c4cc(O)cc(O)c4-c4cc3ccc4O)[C@H](O)c3ccc(c(Cl)c3)Oc3cc2cc(c3O[C@H]2OC(CO)[C@H](O)C(O)C2O[C@H]2C[C@@](C)(N)[C@H](O)C(C)O2)Oc2ccc(cc2Cl)[C@H]1O (some centres unmarked) [Compound 3] |  |  |  |  |  | 0.88 µM (≈ 1.48 µg/mL) | 0.6 µM (≈ 1.01 µg/mL) | 0.7 µM (≈ 1.18 µg/mL) | 54 µM (≈ 90.9 µg/mL) | 0.5 µM (≈ 0.842 µg/mL) |  |  |  |  |
| CCCCCCCCCCCCN[C@]1(C)C[C@H](OC2C(O)[C@@H](O)C(CO)O[C@@H]2Oc2c3cc4cc2Oc2ccc(cc2Cl)[C@@H](O)[C@@H](NC(=O)[C@@H](CC(C)C)NC)C(=O)N[C@@H](CC(N)=O)C(=O)N[C@H]4C(=O)N[C@H]2C(=O)N[C@H](C(=O)N[C@H](C(=O)NCCCNC(=O)[C@H](O)[C@@H](O)[C@H](OC4OC(CO)C(O)C(O)C4O)[C@H](O)CO)c4cc(O)cc(O)c4-c4cc2ccc4O)[C@H](O)c2ccc(c(Cl)c2)O3)OC(C)[C@@H]1O (some centres unmarked) [Compound 18] |  |  |  |  |  | 0.22 µM (≈ 0.443 µg/mL) | 0.2 µM (≈ 0.403 µg/mL) | 0.3 µM (≈ 0.604 µg/mL) | 0.8 µM (≈ 1.61 µg/mL) | 0.2 µM (≈ 0.403 µg/mL) | 1 µM (≈ 2.01 µg/mL) | 0.35 µM (≈ 0.705 µg/mL) | 0.3 µM (≈ 0.604 µg/mL) | 0.5 µM (≈ 1.01 µg/mL) |
| CN[C@H](CC(C)C)C(=O)N[C@H]1C(=O)N[C@@H](CC(N)=O)C(=O)N[C@H]2C(=O)N[C@H]3C(=O)N[C@H](C(=O)N[C@H](C(=O)NCCCNCC(O)C(O)C(OC4OC(CO)C(O)C(O)C4O)C(O)CO)c4cc(O)cc(O)c4-c4cc3ccc4O)[C@H](O)c3ccc(c(Cl)c3)Oc3cc2cc(c3O[C@H]2OC(CO)[C@H](O)C(O)C2O[C@H]2C[C@@](C)(N)[C@H](O)C(C)O2)Oc2ccc(cc2Cl)[C@H]1O (some centres unmarked) [Compound 6] | 0.99 µM (≈ 1.81 µg/mL) | 1.0 µM (≈ 1.83 µg/mL) | 1.0 µM (≈ 1.83 µg/mL) | >100 µM | 0.5 µM (≈ 0.916 µg/mL) |  |  |  |  |  |  |  |  |  |

Continued, in another order:

| MIC [1] | MIC [2] | MIC [3] | MIC [4] | MIC ([5]; ATCC 19634) | MIC ([1]; Staphylococcus aureus, VISA) | MIC ([2]; Staphylococcus aureus) | MIC ([3]; Staphylococcus aureus) | MIC ([4]; Enterococcus faecium) | MIC [5, 10] | SMILES | MIC [6] | MIC [7] | MIC [8] | MIC [9] |
| --- | --- | --- | --- | --- | --- | --- | --- | --- | --- | --- | --- | --- | --- | --- |
| 2.02 µM (≈ 3.34 µg/mL) | 1.2 µM (≈ 1.99 µg/mL) | 1.4 µM (≈ 2.32 µg/mL) | >100 µM | 1.2 µM (≈ 1.99 µg/mL) |  |  |  |  |  | CN[C@H](CC(C)C)C(=O)N[C@H]1C(=O)N[C@@H](CC(N)=O)C(=O)N[C@H]2C(=O)N[C@H]3C(=O)N[C@H](C(=O)N[C@H](C(=O)NCCOC4OC(CO)C(O)C(O)C4O)c4cc(O)cc(O)c4-c4cc3ccc4O)[C@H](O)c3ccc(c(Cl)c3)Oc3cc2cc(c3O[C@H]2OC(CO)[C@H](O)C(O)C2O[C@H]2C[C@@](C)(N)[C@H](O)C(C)O2)Oc2ccc(cc2Cl)[C@H]1O (some centres unmarked) [Compound 2] |  |  |  |  |
|  |  |  |  |  | 2.4 µM (≈ 3.97 µg/mL) | 1.4 µM (≈ 2.32 µg/mL) | 1.2 µM (≈ 1.99 µg/mL) | > 100 µM | 0.6 µM (≈ 0.993 µg/mL) | CN[C@H](CC(C)C)C(=O)N[C@H]1C(=O)N[C@@H](CC(N)=O)C(=O)N[C@H]2C(=O)N[C@H]3C(=O)N[C@H](C(=O)N[C@H](C(=O)NCCOC4OC(CO)C(O)C(O)C4O)c4cc(O)cc(O)c4-c4cc3ccc4O)[C@H](O)c3ccc(c(Cl)c3)Oc3cc2cc(c3O[C@H]2OC(CO)[C@H](O)C(O)C2O[C@H]2C[C@@](C)(N)[C@H](O)C(C)O2)Oc2ccc(cc2Cl)[C@H]1O (some centres unmarked) [Compound 1] |  |  |  |  |
